The values below are quoted from earlier work in US9636300B2, “Racecadotril lipid compositions” (JOHNSON & JOHNSON CONSUMER INC., priority 2013, dated 2017).

The conditions of this data set: room temperature conditions.

Consider `CC(=O)SCC(Cc1ccccc1)C(=O)NCC(=O)OCc1ccccc1` (stereo not shown) [Racecadotril], for which the water solubility result is listed as “about 10 micrograms/ml”.
